{"source": "the supplement of paper PMC10307832", "assay_in_all_cases": "relative viability (nuclei count vs DMSO), 5 days (fraction); higher = more cells survive", "key": {"[1]": {"system": "CAL-12T", "procedure,_shortened": "(§1)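 A single step with final 0.05% Triton X-100, 1% formaldehyde and 1 ug/ml Hoechst fixed the cells and stained nuclei 5 days after treatment. Lung cancer cell lines in 1536-well plates had been treated by pin tool the day after seeding with one drug alone or a fixed anchor-drug dose plus five library-drug doses (not always all listed) in √10 steps, and nuclei were counted on 4× images. Relative viability is the ratio of nuclei in treated wells to nuclei in vehicle wells, taken as the median of duplicate plates.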"}, "[2]": {"system": "ChaGo-K-1", "procedure,_shortened": "as §1"}, "[3]": {"system": "EMC-BAC-2", "procedure,_shortened": "as §1"}, "[4]": {"system": "HOP-62", "procedure,_shortened": "as §1"}, "[5]": {"system": "LC-2-ad", "procedure,_shortened": "as §1"}, "[6]": {"system": "LK-2", "procedure,_shortened": "as §1"}, "[7]": {"system": "NCI-H1355", "procedure,_shortened": "as §1"}, "[8]": {"system": "NCI-H1734", "procedure,_shortened": "as §1"}, "[9]": {"system": "NCI-H1993", "procedure,_shortened": "as §1"}, "[10]": {"system": "NCI-H2009", "procedure,_shortened": "as §1"}, "[11]": {"system": "NCI-H2085", "procedure,_shortened": "as §1"}, "[12]": {"system": "NCI-H2228", "procedure,_shortened": "as §1"}, "[13]": {"system": "NCI-H2347", "procedure,_shortened": "as §1"}, "[14]": {"system": "NCI-H2405", "procedure,_shortened": "as §1"}, "[15]": {"system": "NCI-H3122", "procedure,_shortened": "as §1"}, "[16]": {"system": "NCI-H596", "procedure,_shortened": "as §1"}, "[17]": {"system": "NCI-H838", "procedure,_shortened": "as §1"}, "[18]": {"system": "PC-14", "procedure,_shortened": "as §1"}, "[19]": {"system": "RERF-LC-KJ", "procedure,_shortened": "as §1"}, "[20]": {"system": "SK-MES-1", "procedure,_shortened": "as §1"}, "[21]": {"system": "SW 1573", "procedure,_shortened": "as §1"}}}
{"compound": "Cc1cnc(-c2cnc(NCCNc3ccc(C#N)cn3)nc2-c2ccc(Cl)cc2Cl)[nH]1", "note": "+ CCNC(=O)c1noc(-c2cc(C(C)C)c(O)cc2O)c1-c1ccc(CN2CCOCC2)cc1 [Luminespib] (partner 0.01 µM)", "values": [{"measurement": "relative viability", "setting": "[1]; first compound 0.08 µM", "result": 0.932}, {"measurement": "relative viability", "setting": "[1]; first compound 0.253 µM", "result": 0.259}, {"measurement": "relative viability", "setting": "[1]; first compound 0.8 µM", "result": 0.387}, {"measurement": "relative viability", "setting": "[1]; first compound 2.53 µM", "result": 0.242}, {"measurement": "relative viability", "setting": "[2]; first compound 0.08 µM", "result": 0.622}, {"measurement": "relative viability", "setting": "[2]; first compound 0.253 µM", "result": 0.608}, {"measurement": "relative viability", "setting": "[2]; first compound 0.8 µM", "result": 0.603}, {"measurement": "relative viability", "setting": "[2]; first compound 2.53 µM", "result": 0.538}, {"measurement": "relative viability", "setting": "[3]; first compound 0.08 µM", "result": 1.25}, {"measurement": "relative viability", "setting": "[3]; first compound 0.253 µM", "result": 1.05}, {"measurement": "relative viability", "setting": "[3]; first compound 0.8 µM", "result": 1.23}, {"measurement": "relative viability", "setting": "[3]; first compound 2.53 µM", "result": 1.09}, {"measurement": "relative viability", "setting": "[4]; first compound 0.08 µM", "result": 0.955}, {"measurement": "relative viability", "setting": "[4]; first compound 0.253 µM", "result": 0.841}, {"measurement": "relative viability", "setting": "[4]; first compound 0.8 µM", "result": 0.79}, {"measurement": "relative viability", "setting": "[4]; first compound 2.53 µM", "result": 0.738}, {"measurement": "relative viability", "setting": "[5]; first compound 0.08 µM", "result": 0.956}, {"measurement": "relative viability", "setting": "[5]; first compound 0.253 µM", "result": 0.683}, {"measurement": "relative viability", "setting": "[5]; first compound 2.53 µM", "result": 0.963}, {"measurement": "relative viability", "setting": "[6]; first compound 0.08 µM", "result": 0.197}, {"measurement": "relative viability", "setting": "[6]; first compound 0.253 µM", "result": 0.227}, {"measurement": "relative viability", "setting": "[6]; first compound 0.8 µM", "result": 0.239}, {"measurement": "relative viability", "setting": "[6]; first compound 2.53 µM", "result": 0.205}, {"measurement": "relative viability", "setting": "[7]; first compound 0.08 µM", "result": 0.704}, {"measurement": "relative viability", "setting": "[7]; first compound 0.253 µM", "result": 0.698}, {"measurement": "relative viability", "setting": "[7]; first compound 0.8 µM", "result": 0.677}, {"measurement": "relative viability", "setting": "[7]; first compound 2.53 µM", "result": 0.744}, {"measurement": "relative viability", "setting": "[8]; first compound 0.08 µM", "result": 0.208}, {"measurement": "relative viability", "setting": "[8]; first compound 0.253 µM", "result": 0.199}, {"measurement": "relative viability", "setting": "[8]; first compound 0.8 µM", "result": 0.144}, {"measurement": "relative viability", "setting": "[8]; first compound 2.53 µM", "result": 0.23}, {"measurement": "relative viability", "setting": "[9]; first compound 0.08 µM", "result": 0.934}, {"measurement": "relative viability", "setting": "[9]; first compound 0.253 µM", "result": 0.932}, {"measurement": "relative viability", "setting": "[9]; first compound 0.8 µM", "result": 0.598}, {"measurement": "relative viability", "setting": "[9]; first compound 2.53 µM", "result": 1.27}, {"measurement": "relative viability", "setting": "[10]; first compound 0.08 µM", "result": 1.03}, {"measurement": "relative viability", "setting": "[10]; first compound 0.253 µM", "result": 0.984}, {"measurement": "relative viability", "setting": "[10]; first compound 0.8 µM", "result": 0.995}, {"measurement": "relative viability", "setting": "[10]; first compound 2.53 µM", "result": 0.975}, {"measurement": "relative viability", "setting": "[11]; first compound 0.08 µM", "result": 0.456}, {"measurement": "relative viability", "setting": "[11]; first compound 0.253 µM", "result": 0.486}, {"measurement": "relative viability", "setting": "[11]; first compound 0.8 µM", "result": 0.462}, {"measurement": "relative viability", "setting": "[11]; first compound 2.53 µM", "result": 0.339}, {"measurement": "relative viability", "setting": "[12]; first compound 0.08 µM", "result": 0.131}, {"measurement": "relative viability", "setting": "[12]; first compound 0.253 µM", "result": 0.156}, {"measurement": "relative viability", "setting": "[12]; first compound 0.8 µM", "result": 0.133}, {"measurement": "relative viability", "setting": "[12]; first compound 2.53 µM", "result": 0.159}, {"measurement": "relative viability", "setting": "[13]; first compound 0.08 µM", "result": 0.267}, {"measurement": "relative viability", "setting": "[13]; first compound 0.253 µM", "result": 0.266}, {"measurement": "relative viability", "setting": "[13]; first compound 0.8 µM", "result": 0.346}, {"measurement": "relative viability", "setting": "[13]; first compound 2.53 µM", "result": 0.518}, {"measurement": "relative viability", "setting": "[14]; first compound 0.08 µM", "result": 0.763}, {"measurement": "relative viability", "setting": "[14]; first compound 0.253 µM", "result": 0.552}, {"measurement": "relative viability", "setting": "[14]; first compound 0.8 µM", "result": 0.822}, {"measurement": "relative viability", "setting": "[14]; first compound 2.53 µM", "result": 0.574}, {"measurement": "relative viability", "setting": "[15]; first compound 0.08 µM", "result": 0.124}, {"measurement": "relative viability", "setting": "[15]; first compound 0.8 µM", "result": 0.0778}, {"measurement": "relative viability", "setting": "[15]; first compound 2.53 µM", "result": 0.0737}, {"measurement": "relative viability", "setting": "[16]; first compound 0.08 µM", "result": 1.06}, {"measurement": "relative viability", "setting": "[16]; first compound 0.253 µM", "result": 1.03}, {"measurement": "relative viability", "setting": "[16]; first compound 0.8 µM", "result": 1.05}, {"measurement": "relative viability", "setting": "[16]; first compound 2.53 µM", "result": 1.24}, {"measurement": "relative viability", "setting": "[17]; first compound 0.08 µM", "result": 0.326}, {"measurement": "relative viability", "setting": "[17]; first compound 0.253 µM", "result": 0.287}, {"measurement": "relative viability", "setting": "[17]; first compound 0.8 µM", "result": 0.333}, {"measurement": "relative viability", "setting": "[17]; first compound 2.53 µM", "result": 0.301}, {"measurement": "relative viability", "setting": "[18]; first compound 0.08 µM", "result": 0.151}, {"measurement": "relative viability", "setting": "[18]; first compound 0.253 µM", "result": 0.24}, {"measurement": "relative viability", "setting": "[18]; first compound 0.8 µM", "result": 0.107}, {"measurement": "relative viability", "setting": "[18]; first compound 2.53 µM", "result": 0.18}, {"measurement": "relative viability", "setting": "[19]; first compound 0.08 µM", "result": 1.23}, {"measurement": "relative viability", "setting": "[19]; first compound 0.253 µM", "result": 1.12}, {"measurement": "relative viability", "setting": "[19]; first compound 0.8 µM", "result": 1.27}, {"measurement": "relative viability", "setting": "[19]; first compound 2.53 µM", "result": 1.32}, {"measurement": "relative viability", "setting": "[20]; first compound 0.08 µM", "result": 0.859}, {"measurement": "relative viability", "setting": "[20]; first compound 0.253 µM", "result": 0.757}, {"measurement": "relative viability", "setting": "[20]; first compound 0.8 µM", "result": 0.838}, {"measurement": "relative viability", "setting": "[20]; first compound 2.53 µM", "result": 0.921}, {"measurement": "relative viability", "setting": "[21]; first compound 0.08 µM", "result": 0.162}, {"measurement": "relative viability", "setting": "[21]; first compound 0.253 µM", "result": 0.277}, {"measurement": "relative viability", "setting": "[21]; first compound 0.8 µM", "result": 0.344}, {"measurement": "relative viability", "setting": "[21]; first compound 2.53 µM", "result": 0.234}]}
